In ChEMBL document CHEMBL6092167, “Phosphorylation as an Effective Tool to Improve Stability and Reduce Toxicity of Antimicrobial Peptides” (J Med Chem, 2024):
≈ marks a conversion by molar mass, not a printed value. Calls of active or inactive are those of the source. The calls are words filed in the database; no cut-off is given here. Non-standard residues stand in square brackets, D forms with d. Residues, ends and D or L forms follow the SMILES beside them. Bip = N[C@@H](Cc1ccc(-c2ccccc2)cc1)C(=O)O; pT = C[C@@H](OP(=O)(O)O)[C@H](N)C(=O)O

Assays:
Acinetobacter baumannii = test: Antibacterial activity against Acinetobacter baumannii ATCC 19606 incubated for 18 to 24 hrs by broth microdilution method; format: functional; settings: time 18-24 hrs
Staphylococcus aureus [1] = test: Antibacterial activity against Staphylococcus aureus ATCC 25923 infected in BALB/c mouse systemic infection model assessed as reduction in bacterial load in spleen at 1.09 mg/kg, ip pre-infected for 2 hrs followed by compound addition and measured after 8 hrs postinfection; format: functional, organism-based; settings: time 6.0 hrs
Staphylococcus aureus [2] = test: Antibacterial activity against Staphylococcus aureus ATCC 25923 infected in BALB/c mouse systemic infection model assessed as reduction in bacterial load in kidney at 1.09 mg/kg, ip pre-infected for 2 hrs followed by compound addition and measured after 8 hrs postinfection; format: functional, organism-based; settings: time 6.0 hrs
Staphylococcus aureus [3] = test: Antibacterial activity against methicillin resistant Staphylococcus aureus ATCC 33591 incubated for 18 to 24 hrs by broth microdilution method; format: functional; settings: time 18-24 hrs
Staphylococcus aureus [4] = test: Antibacterial activity against Staphylococcus aureus ATCC 25923 infected in BALB/c mouse systemic infection model assessed as improved alveoli dilation at 1.09 mg/kg, ip pre-infected for 2 hrs followed by compound addition and measured after 8 hrs postinfection; format: functional, organism-based; settings: time 6.0 hrs
Staphylococcus aureus [5] = test: Antibacterial activity against Staphylococcus aureus ATCC 25923 infected in BALB/c mouse systemic infection model assessed as reduction in tissue hemorrhage at 1.09 mg/kg, ip pre-infected for 2 hrs followed by compound addition and measured after 8 hrs postinfection; format: functional, organism-based; settings: time 6.0 hrs
Pseudomonas aeruginosa [6] = test: Antibacterial activity against Pseudomonas aeruginosa 119 incubated for 18 to 24 hrs by broth microdilution method; format: functional; settings: time 18-24 hrs
Staphylococcus aureus [7] = test: Antibacterial activity against Staphylococcus aureus ATCC 25923 infected in BALB/c mouse systemic infection model assessed as reduction in bacterial load in liver at 1.09 mg/kg, ip pre-infected for 2 hrs followed by compound addition and measured after 8 hrs postinfection; format: functional, organism-based; settings: time 6.0 hrs
Pseudomonas aeruginosa [8] = test: Antibacterial activity against Pseudomonas aeruginosa ATCC 27853 incubated for 18 to 24 hrs by broth microdilution method; format: functional; settings: time 18-24 hrs
Staphylococcus aureus [9] = test: Antibacterial activity against methicillin resistant Staphylococcus aureus 48 incubated for 18 to 24 hrs by broth microdilution method; format: functional; settings: time 18-24 hrs
Staphylococcus aureus [10] = test: Antibacterial activity against Staphylococcus aureus 794 incubated for 18 to 24 hrs by broth microdilution method; format: functional; settings: time 18-24 hrs
Bacillus subtilis = test: Antibacterial activity against Bacillus subtilis ATCC 23857 incubated for 18 to 24 hrs by broth microdilution method; format: functional; settings: time 18-24 hrs
Klebsiella pneumoniae [11] = test: Antibacterial activity against Klebsiella pneumoniae ATCC 700603 incubated for 18 to 24 hrs by broth microdilution method; format: functional; settings: time 18-24 hrs
Staphylococcus aureus [12] = test: Antibacterial activity against Staphylococcus aureus ATCC 25923 infected in BALB/c mouse systemic infection model assessed as reduction in inflammatory response in lung tissue at 1.09 mg/kg, ip pre-infected for 2 hrs followed by compound addition and measured after 8 hrs postinfection; format: functional, organism-based; settings: time 6.0 hrs
Staphylococcus aureus [13] = test: Antibacterial activity against Staphylococcus aureus ATCC 25923 infected in BALB/c mouse systemic infection model assessed as reduction in bacterial load in lung at 1.09 mg/kg, ip pre-infected for 2 hrs followed by compound addition and measured after 8 hrs postinfection; format: functional, organism-based; settings: time 6.0 hrs
Staphylococcus aureus [14] = test: Antibacterial activity against Staphylococcus aureus ATCC 25923 incubated for 18 to 24 hrs by broth microdilution method; format: functional; settings: time 18-24 hrs
Escherichia coli [15] = test: Antibacterial activity against Escherichia coli 850 incubated for 18 to 24 hrs by broth microdilution method; format: functional; settings: time 18-24 hrs
Escherichia coli [16] = test: Antibacterial activity against Escherichia coli ATCC 25922 incubated for 18 to 24 hrs by broth microdilution method; format: functional; settings: time 18-24 hrs
[17] = Hemolytic activity in mouse erythrocyte incubated for 1 hr by microplate reader assay; format: toxicity, cell-based
Escherichia coli [18] = test: Antibacterial activity against Escherichia coli 780 incubated for 18 to 24 hrs by broth microdilution method; format: functional; settings: time 18-24 hrs
[19] = Cytotoxicity against HEK293T cells incubated for 1 hr by fluorescence based microplate reader assay; format: toxicity, cell-based, HEK-293T; settings: human
Klebsiella pneumoniae [20] = test: Drug resistance development in Klebsiella pneumoniae ATCC 700603 assessed as fold increase in MIC measured after 7 passage; format: functional
Staphylococcus aureus [21] = test: Bactericidal activity against Staphylococcus aureus ATCC 25923 at 2 times MIC incubated for 24 hrs by time kill assay; format: functional
Staphylococcus aureus [22] = test: Antibiofilm activity against Staphylococcus aureus ATCC 25923 assessed as eradication of preformed biofilms at 4 times MIC incubated for 24 hrs by crystal violet staining based assay; format: functional, organism-based
Staphylococcus aureus [23] = test: Inhibition of biofilm formation in Staphylococcus aureus ATCC 25923 at 2 times MIC incubated for 24 hrs by crystal violet staining based assay; format: functional, organism-based

Row | Compound | MIC (Acinetobacter baumannii) | MIC (Staphylococcus aureus [3]) | MIC (Pseudomonas aeruginosa [6]) | MIC (Pseudomonas aeruginosa [8]) | MIC (Staphylococcus aureus [9]) | MIC (Staphylococcus aureus [10]) | MIC (Bacillus subtilis) | MIC (Klebsiella pneumoniae [11]) | MIC (Staphylococcus aureus [14]) | MIC (Escherichia coli [15]) | MIC (Escherichia coli [16]) | MHC [17] | MIC (Escherichia coli [18]) | CC50 at 1 h [19] | other results
1 | CNC(C)[C@@H]1CC[C@@H](N)[C@@H](O[C@H]2[C@H](O)[C@@H](O[C@H]3OC[C@](C)(O)[C@H](NC)[C@H]3O)[C@H](N)C[C@@H]2N)O1.CN[C@@H]1[C@@H](O)[C@@H](O[C@@H]2[C@@H](O)[C@H](O[C@H]3O[C@H](C(C)N)CC[C@H]3N)[C@@H](N)C[C@H]2N)OC[C@]1(C)O.CN[C@@H]1[C@@H](O)[C@@H](O[C@@H]2[C@@H](O)[C@H](O[C@H]3O[C@H](CN)CC[C@H]3N)[C@@H](N)C[C@H]2N)OC[C@]1(C)O (stereo not given in full) | 8 µM | 32 µM | > 128 µM | < 1 µM | 64 µM | 64 µM | < 1 µM | 8 µM | < 1 µM |  |  |  |  |  | Activity (Staphylococcus aureus [1]): Active; Activity (Staphylococcus aureus [2]): Active; Activity (Staphylococcus aureus [4]): inactive; Activity (Staphylococcus aureus [5]): Active; Activity (Staphylococcus aureus [7]): Active; Activity (Staphylococcus aureus [12]): Active; Activity (Staphylococcus aureus [13]): Active
2 | CC(C)C[C@H](NC(=O)[C@H](CC(C)C)NC(=O)[C@@H](NC(=O)[C@H](CCCCN)NC(=O)[C@H](CC(C)C)NC(=O)[C@H](CCCNC(=N)N)NC(=O)[C@H](CCCCN)NC(=O)[C@H](Cc1ccc(-c2ccccc2)cc1)NC(=O)[C@H](CC(C)C)NC(=O)CN)[C@@H](C)O)C(N)=O (H-GL[Bip]KRLKTLL-NH2) | 8 µM (≈ 10.1 µg/mL) | 8 µM (≈ 10.1 µg/mL) | 8 µM (≈ 10.1 µg/mL) | 8 µM (≈ 10.1 µg/mL) | 8 µM (≈ 10.1 µg/mL) | 8 µM (≈ 10.1 µg/mL) | 8 µM (≈ 10.1 µg/mL) | 8 µM (≈ 10.1 µg/mL) | 8 µM (≈ 10.1 µg/mL) | 8 µM (≈ 10.1 µg/mL) | 8 µM (≈ 10.1 µg/mL) | 47.48 µM | 8 µM (≈ 10.1 µg/mL) | 76.4 µM | 
3 | CC(C)C[C@H](NC(=O)[C@H](CC(C)C)NC(=O)[C@@H](NC(=O)[C@H](CCCCN)NC(=O)[C@H](CC(C)C)NC(=O)[C@H](CCCNC(=N)N)NC(=O)[C@H](CCCCN)NC(=O)[C@H](Cc1ccc(-c2ccccc2)cc1)NC(=O)[C@H](CC(C)C)NC(=O)CN)[C@@H](C)OP(=O)(O)O)C(N)=O (H-GL[Bip]KRLK[pT]LL-NH2) | 32 µM (≈ 43 µg/mL) | 54 µM (≈ 72.6 µg/mL) | 32 µM (≈ 43 µg/mL) | 16 µM (≈ 21.5 µg/mL) | 32 µM (≈ 43 µg/mL) | 16 µM (≈ 21.5 µg/mL) | 16 µM (≈ 21.5 µg/mL) | 64 µM (≈ 86 µg/mL) | 64 µM (≈ 86 µg/mL) | 32 µM (≈ 43 µg/mL) | 32 µM (≈ 43 µg/mL) | 125.83 µM | 16 µM (≈ 21.5 µg/mL) | 112 µM | 
4 | NC[C@H]1O[C@H](O[C@H]2[C@H](O)[C@@H](O[C@H]3O[C@H](CO)[C@@H](O)[C@H](N)[C@H]3O)[C@H](N)C[C@@H]2N)[C@H](O)[C@@H](O)[C@@H]1O [KANAMYCIN] | 8 µM (≈ 3.88 µg/mL) | > 128 µM | 64 µM (≈ 31 µg/mL) | > 128 µM | > 128 µM | 64 µM (≈ 31 µg/mL) | < 1 µM | 32 µM (≈ 15.5 µg/mL) | < 1 µM | > 128 µM | 8 µM (≈ 3.88 µg/mL) |  | 32 µM (≈ 15.5 µg/mL) |  | fold change (FC) (Klebsiella pneumoniae [20]): 128
5 | CO[C@H]1/C=C/O[C@@]2(C)Oc3c(C)c(O)c4c(O)c(c(/C=N/N5CCN(C)CC5)c(O)c4c3C2=O)NC(=O)/C(C)=C\C=C\[C@H](C)[C@H](O)[C@@H](C)[C@@H](O)[C@@H](C)[C@H](OC(C)=O)[C@@H]1C [RIFAMPIN] | 1 µM (≈ 0.823 µg/mL) |  |  | 32 µM (≈ 26.3 µg/mL) |  |  | < 1 µM | 32 µM (≈ 26.3 µg/mL) | < 1 µM |  | 8 µM (≈ 6.58 µg/mL) |  |  |  | fold change (FC) (Klebsiella pneumoniae [20]): 128
6 | CN[C@H](CC(C)C)C(=O)N[C@H]1C(=O)N[C@@H](CC(N)=O)C(=O)N[C@H]2C(=O)N[C@H]3C(=O)N[C@H](C(=O)N[C@H](C(=O)O)c4cc(O)cc(O)c4-c4cc3ccc4O)[C@H](O)c3ccc(c(Cl)c3)Oc3cc2cc(c3O[C@@H]2O[C@H](CO)[C@@H](O)[C@H](O)[C@H]2O[C@H]2C[C@](C)(N)[C@H](O)[C@H](C)O2)Oc2ccc(cc2Cl)[C@H]1O [VANCOMYCIN] | 64 µM (≈ 92.8 µg/mL) | < 1 µM | > 128 µM | > 128 µM | < 1 µM | 128 µM (≈ 186 µg/mL) | < 1 µM | > 128 µM | < 1 µM | 128 µM (≈ 186 µg/mL) | 128 µM (≈ 186 µg/mL) |  | 128 µM (≈ 186 µg/mL) |  | Activity (Staphylococcus aureus [21]): 100%; Activity (Staphylococcus aureus [22]): Active; Showed Poor Efficacy; inhibition (Staphylococcus aureus [23]): Active
7 | H-GLLKRWKTLL-NH2 | > 128 µM | 128 µM | 32 µM | 8 µM | 128 µM | 32 µM | 8 µM | 64 µM | > 128 µM | 32 µM | 64 µM | > 256 µM | 32 µM | > 128 µM | 
8 | H-GLLKRWKYLL-NH2 | 64 µM | 32 µM | 16 µM | 8 µM | 32 µM | 16 µM | 4 µM | 64 µM | 64 µM | 16 µM | 16 µM | > 256 µM | 8 µM | > 128 µM | 
9 | H-GLWKRLKTLL-NH2 | 32 µM | 8 µM | 16 µM | 4 µM | 8 µM | 8 µM | 4 µM | 8 µM | 16 µM | 8 µM | 8 µM | > 256 µM | 8 µM | > 128 µM | 
10 | H-GLWKRLKYLL-NH2 | 8 µM | 8 µM | 16 µM | 8 µM | 8 µM | 8 µM | 4 µM | 8 µM | 8 µM | 8 µM | 8 µM | 182.72 µM | 8 µM | 115 µM | 
